Here are results for eight compounds from publication PMC6571965, “Importance of the Proximity and Orientation of Ligand-Linkage to the Design of Cinnamate-GW9662 Hybrid Compounds as Covalent PPARγ Agonists” (Molecules, 2019).

For test [1], the target named is T1, recombinant PPARγ LBD (Cys285) (Homo sapiens, UniProt P37231).
T1 construct: recombinant PPARγ LBD (2 µM) was mixed with various ligands; gift of Dr. Takuji Oyama (Yamanashi University)
T1 sequence (P37231 238-503 limits assumed): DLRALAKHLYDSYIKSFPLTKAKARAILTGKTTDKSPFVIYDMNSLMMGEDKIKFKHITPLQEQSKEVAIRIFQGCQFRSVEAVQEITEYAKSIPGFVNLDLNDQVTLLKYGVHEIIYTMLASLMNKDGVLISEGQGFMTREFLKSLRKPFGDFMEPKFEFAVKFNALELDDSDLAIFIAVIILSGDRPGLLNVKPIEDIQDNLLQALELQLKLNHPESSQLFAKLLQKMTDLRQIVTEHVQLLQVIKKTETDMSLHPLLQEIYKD
As to the kind of experiment: Rhodamine-maleimide assay for covalent modification of Cys285. It is filed as binding. As to conditions: PPARγ LBD 2 µM, 30 min incubation at room temperature. The text has this: (§1) To assess the interactions between the receptor and the synthesized compounds, we initially validated the formation of a covalent bond with Cys285 by performing a rhodamine-maleimide assay. This assay can detect the presence of a covalent modification of Cys285 in the PPARγ LBD because it has only one cysteine residue in its sequences. […] To further confirm the covalent bonding of the synthesized compounds, we conducted proteolytic mapping studies via mass spectroscopy using 4a as a representative compound and 4b as a negative control. The complexes between recombinant PPARγ LBD and the test compounds were trypsinized and subjected to MALDI-TOF MS. Covalent binding of 4a (mass of 466.1 Da) to the PPARγ LBD is assumed to result in a mass change of 431.1 Da for the modified tryptic peptide. By comparison of the tryptic digests of PPARγ, with and without 4a, a candidate peptide containing the attachment site for 4a ([…], m/z 499.7492 Da) was detected by its mass shift to m/z 714.8080 Da (detected as double charged; Figure 3B).
Rhodamine-Maleimide assay was performed as previously described. Briefly, recombinant PPARγ LBD (2 µM) was mixed with various ligands at the indicated concentrations in 20 mM Tris-HCl, pH8.0, 150 mM NaCl, and 1 mM tris(2-carboxylethyl)phosphine (TCEP). The mixture was incubated for 30 min at room temperature. SDS was added to the reaction mixture to a final concentration of 0.5%, followed by rhodamine red C2 maleimide (Life Technologies, Carlsbad, CA, USA) at a final concentration of 1 mM. After incubation at room temperature for 30 min, samples were treated with SDS-PAGE sample buffer containing β-mercaptoethanol for 30 min at 55 °C and were separated by SDS-PAGE. Fluorescent signals were visualized using the LAS1000 plus image analyzer (Fujifilm, Tokyo, Japan).
. (B), (C) Detection of covalent binding of 4a to Cys285 in the PPARγ LBD by ESI-MS/MS analysis. Fragmentation pattern of peptide […] was obtained from the trypsin digest. The calculated y- and b-ions of this peptide with observed ions underlined and the native or modified peptides detected in chromatogram are shown.

The target of test [2] is T2, human PPARγ LBD (Homo sapiens, UniProt P37231).
T2 sequence (P37231 238-503 limits assumed): T1 sequence (P37231 238-503 limits assumed)
As to the kind of experiment: PPARγ reporter assay (GAL4 DNA-binding domain/PPARγ LBD chimera, pUAS-tk-Luc luciferase) in HepG2 cells. Format: cell-based. Further details: expressed in transfected cells; host or cells: HepG2. As to conditions: for PPARγ agonist activity (in words) / EC50: HepG2 cells, pGal4-human PPARγLBD, 6 h treatment; for EC50: mean ± SD, read-out: EC50 (PPARγ agonist activity); for fold more potent than previously synthesized compound 3: PPARγ agonist activity, compared with 3. The procedure:
PPARγ agonist activity was assessed by expression of a GAL4 DNA-binding domain/PPARγ LBD chimera protein using the plasmid pGAL4- PPARγ LBD and the luciferase reporter plasmid pUAS-tk-Luc containing the target sequence of GAL4 [20]. […] This supports our hypothesis that close proximity between the two fragments contributes to the improvement of binding affinity.
The PPARγ reporter assay was carried out as previously reported with slight modifications. pGal4-human PPARγLBD, pUAS-tk-luc and Renilla luciferase transfection control vector (pGL4.74, Promega, Madison, WI, USA) were transfected into HepG2 cells using Hily-max (Dojindo, Kumamoto, Japan) and PPARγ agonist activity was determined from the luciferase activity using the Dual-Luciferase Reporter Assay System (Promega) according to the manufacturer’s protocol.
Figure 2 Transactivation potentials of PPARγ by 4a, b, c, d, e, and 16. The luciferase reporter assay was performed in HepG2 cells transiently cotransfected with pGal4-humanPPARγLBD plasmid, pUAS-tk-Luc reporter, and pGL4.74[hRluc/TK] (Promega). Firefly luciferase activities were normalized to Renilla luciferase activities. Vehicle control data are denoted as 1. […] All the results are presented as the mean ± SD (n = 3) of three independent experiments. * p < 0.001, compared with vehicle control.
In general terms: Reporter assays use an easily measured gene product as a stand-in for the process of interest.

Test [3] concerns the target T3, human PPARγ LBD C285A mutant (Homo sapiens, UniProt P37231, C313A).
T3 sequence (P37231 232-505 C313A): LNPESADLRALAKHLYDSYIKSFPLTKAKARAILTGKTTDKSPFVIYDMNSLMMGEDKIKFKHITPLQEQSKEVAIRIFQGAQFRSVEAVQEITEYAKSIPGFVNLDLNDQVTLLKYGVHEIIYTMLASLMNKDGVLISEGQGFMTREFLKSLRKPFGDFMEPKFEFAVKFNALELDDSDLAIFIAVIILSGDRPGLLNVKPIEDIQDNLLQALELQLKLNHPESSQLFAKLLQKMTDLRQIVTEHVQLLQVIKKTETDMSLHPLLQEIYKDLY
As to the kind of experiment: Luciferase reporter gene assay with C285A mutant of pGal4-humanPPARγLBD in HepG2 cells. As to conditions: 6 h, troglitazone 10 μM.
Description: (§2) We first examined the relationship between covalent binding to the Cys285 residue and the agonist activity by a luciferase reporter gene assay using PPARγ mutants where the cysteine was substituted to an alanine (C285A). […] To examine this idea, we monitored the levels of luciferase activity upon withdrawal of the synthesized agonists.

Test [4] has as its target T2, human PPARγ LBD. As to the kind of experiment: Luciferase reporter assay after ligand withdrawal in HepG2 cells. As to conditions: 6 h treatment (troglitazone 10 μM; 4a, 4c 100 nM), washed, 24 h after withdrawal.
Description: as §2
For test [5], the target named is T1, recombinant PPARγ LBD (Cys285). Briefly: Proteolytic mapping by MS/MS of ligand modification of PPARγ LBD. As to conditions: PPARγ LBD 20 µM, ligand 40 µM, 30 min, trypsin digest. Format: binding.
Description: as §1
LC-MS/MS detection was performed as previously described. Briefly, purified recombinant PPARγ LBD (20 µM) was incubated with ligands (40 µM) in 20 mM Tris-HCl, pH8.0, 150 mM NaCl, and 1 mM TCEP for 30 min. […]
. […] The calculated y- and b-ions of this peptide with observed ions underlined and the native or modified peptides detected in chromatogram are shown.

Test [6] deals with T2, human PPARγ LBD. More on the design: expressed in transfected cells; host or cells: HepG2; method as in PMID 26414848. As to conditions: previously synthesized compound; read-out: EC50 value (partial agonistic activity); cited from earlier work.

Structures are written as SMILES. Entries after “also recorded” stand apart in the source; their conditions may differ. Where two headings read alike, the source gives them in different places.

With `O=C(Nc1ccccc1)c1cc([N+](=O)[O-])ccc1Cl` [GW9662], the “fluorescence of rhodamine-labeled PPARγ LBD (covalent bond with Cys285)” value (“fluorescence” below) in test [1] was “decreased”.
Consider `CCOC(=O)/C=C/c1ccc(OCCc2ccc(NC(=O)c3cc([N+](=O)[O-])ccc3Cl)cc2)cc1` [Compound 16, (E)-Ethyl 3-(4-{2-[4-(2-chloro-5-nitrobenzamido)phenyl]ethoxy}phenyl)acrylate], for which, at human PPARγ LBD [2], the “PPARγ agonist activity (in words)” value is “disappearance of activity; also recorded: exhibited no agonistic activity”. Besides, the “fluorescence” value in test [1] is “showed the decrease of fluorescence”.
As for `CCOC(=O)/C=C/c1ccc(Oc2ccccc2NC(=O)c2cc([N+](=O)[O-])ccc2Cl)cc1` [Compound 4c, (E)-Ethyl 3-{4-[2-(2-chloro-5-nitrobenzamido)phenoxy]phenyl}acrylate], on human PPARγ LBD [2], the EC50 (commonly the concentration giving half of the maximal effect) is 4.11 ± 0.13 nM and the “fold more potent than previously synthesized compound 3” value is reported as “about 3 fold”. Besides, in test [3], the “transactivation in the C285A mutant” value is recorded as “did not show the transactivation”. In addition, the “luciferase transcription activity after withdrawal of ligand” value at human PPARγ LBD [4] is “sustained transcription activity 24 h after withdrawal”. The “fluorescence” value in test [1] is on record as “decrease of labeled PPARγ LBD was also found”.
On to `CCOC(=O)/C=C/c1ccc(Oc2cccc(NC(=O)c3cccc([N+](=O)[O-])c3)c2)cc1` [Compound 4b, (E)-Ethyl 3-{4-[3-(3-nitrobenzamido)phenoxy]phenyl}acrylate], for which the “covalent adduct with Cys285 detected by mass shift of tryptic peptide IFQGCQFR” value in test [5] is listed as “these mass shifts were not exhibited”. On human PPARγ LBD [2], the “PPARγ agonist activity (in words)” value is reported as “had no agonist activity”. Further, in test [1], the “fluorescence” value is reported as “decrease of fluorescence was not observed”.
For `CCOC(=O)/C=C/c1ccc(OCCc2cccc(NC(=O)c3cc([N+](=O)[O-])ccc3Cl)c2)cc1` [Compound 3], the EC50 at human PPARγ LBD [6] was 14 nM.
Take `CCOC(=O)/C=C/c1ccc(Oc2cccc(NC(=O)c3cc([N+](=O)[O-])ccc3Cl)c2)cc1` [Compound 4a, (E)-Ethyl 3-{4-[3-(2-chloro-5-nitrobenzamido)phenoxy]phenyl}acrylate]: the “covalent adduct with Cys285 detected by mass shift of tryptic peptide IFQGCQFR” value in test [5] was “identified as the Cys285 residue”. In addition, at human PPARγ LBD [2], the EC50 is 5.13 ± 0.45 nM and the “fold more potent than previously synthesized compound 3” value was “about 3 fold”. Further, the “transactivation in the C285A mutant” value in test [3] was “did not show the transactivation”. Besides, at human PPARγ LBD [4], the “luciferase transcription activity after withdrawal of ligand” value is “sustained transcription activity 24 h after withdrawal”. Further, the “fluorescence” value in test [1] is listed as “decrease of labeled PPARγ LBD was also found”.
Turning to `CCOC(=O)/C=C/c1ccc(Oc2ccc(NC(=O)c3cc([N+](=O)[O-])ccc3Cl)cc2)cc1` [Compound 4d, (E)-Ethyl 3-{4-[4-(2-chloro-5-nitrobenzamido)phenoxy]phenyl}acrylate], at human PPARγ LBD [2], the “PPARγ agonist activity (in words)” value was “completely abolished; also recorded: exhibited no agonistic activity”. In addition, the “fluorescence” value in test [1] is given as “showed the decrease of fluorescence”.
Regarding `CCOC(=O)CCc1ccc(Oc2cccc(NC(=O)c3cc([N+](=O)[O-])ccc3Cl)c2)cc1` [Compound 4e, Ethyl 3-{4-[3-(2-chloro-5-nitrobenzamido)phenoxy]phenyl}propanoate], at human PPARγ LBD [2], the EC50 is 2.54 ± 1.3 nM.
